Experimental data as given in ChEMBL document CHEMBL1201862, “PubChem BioAssay data set” (2004).
Calls of active or inactive are those of the source. Rule as the data show it, for most assays here: actives have a measured EC50 and inactives only a lower limit.

Columns and labels:
[1] = molecular target: T1, Ubiquitin-conjugating enzyme E2 N (Homo sapiens, UniProt P61088); type: functional;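 also: Dose-response confirmation in a TR-FRET assay detecting UBC13-driven polyubiquitin chain formation, inhibition measured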
T1 sequence (P61088 whole entry): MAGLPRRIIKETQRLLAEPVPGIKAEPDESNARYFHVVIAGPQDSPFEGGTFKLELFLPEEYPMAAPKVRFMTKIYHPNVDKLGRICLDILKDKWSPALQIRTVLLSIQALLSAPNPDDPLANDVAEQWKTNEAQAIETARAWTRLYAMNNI

[2] = cytotoxicity toward NIH3T3 fibroblasts, dose response, counter-screen, cell-based, ATP luminescence, mouse fibroblasts (AID 2010); type: functional;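 also: cells exposed to compound for about 90 hours before reading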
[3] = inhibitors of intracellular T. cruzi replication, confirmation, NIH3T3 host cells, beta-gal luminescence (AID 2044); type: functional, cell-based;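 also: intracellular parasites grown in NIH/3T3 mouse fibroblasts as host cells; luminescent beta-galactosidase reporter signal from transgenic T. cruzi replicating inside host cells; inhibitors lower the luminescence signal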
[4] = molecular target: CAAX prenyl protease 1 (Saccharomyces cerevisiae S288c, UniProt P47154); experiment: Ste24 protease inhibitors, dose response, biochemical, S. cerevisiae, plate reader, cherry-pick (AID 488815)
Chain of CAAX prenyl protease 1 (P47154 whole entry): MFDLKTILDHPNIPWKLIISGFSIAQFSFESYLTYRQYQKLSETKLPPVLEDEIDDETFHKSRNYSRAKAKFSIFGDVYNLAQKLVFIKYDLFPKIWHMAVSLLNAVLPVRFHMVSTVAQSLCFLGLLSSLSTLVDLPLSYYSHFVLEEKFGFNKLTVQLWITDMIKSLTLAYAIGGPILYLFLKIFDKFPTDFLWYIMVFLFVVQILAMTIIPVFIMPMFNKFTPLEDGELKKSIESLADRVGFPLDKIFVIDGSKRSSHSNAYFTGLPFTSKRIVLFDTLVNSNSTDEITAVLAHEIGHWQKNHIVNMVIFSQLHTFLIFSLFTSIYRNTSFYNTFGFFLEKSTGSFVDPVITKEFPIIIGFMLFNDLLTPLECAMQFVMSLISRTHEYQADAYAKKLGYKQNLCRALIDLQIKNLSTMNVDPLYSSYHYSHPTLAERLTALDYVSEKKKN

[5] = test system: Streptococcus sp. 'group A'; experiment: growth inhibition of control SK(-) GAS strain, dose response, counter-screen for streptokinase expression inhibitor project, luminescence, kanamycin, BacTiterGlo, confirmation (AID 1900); type: functional, organism-based
[6] = molecular target: T2, Hexokinase HKDC1 (Homo sapiens, UniProt Q2TB90); experiment: HKDC1 hexokinase inhibitors, dose response, biochemical, W721R variant (AID 504729); type: functional
T2 sequence (Q2TB90 whole entry): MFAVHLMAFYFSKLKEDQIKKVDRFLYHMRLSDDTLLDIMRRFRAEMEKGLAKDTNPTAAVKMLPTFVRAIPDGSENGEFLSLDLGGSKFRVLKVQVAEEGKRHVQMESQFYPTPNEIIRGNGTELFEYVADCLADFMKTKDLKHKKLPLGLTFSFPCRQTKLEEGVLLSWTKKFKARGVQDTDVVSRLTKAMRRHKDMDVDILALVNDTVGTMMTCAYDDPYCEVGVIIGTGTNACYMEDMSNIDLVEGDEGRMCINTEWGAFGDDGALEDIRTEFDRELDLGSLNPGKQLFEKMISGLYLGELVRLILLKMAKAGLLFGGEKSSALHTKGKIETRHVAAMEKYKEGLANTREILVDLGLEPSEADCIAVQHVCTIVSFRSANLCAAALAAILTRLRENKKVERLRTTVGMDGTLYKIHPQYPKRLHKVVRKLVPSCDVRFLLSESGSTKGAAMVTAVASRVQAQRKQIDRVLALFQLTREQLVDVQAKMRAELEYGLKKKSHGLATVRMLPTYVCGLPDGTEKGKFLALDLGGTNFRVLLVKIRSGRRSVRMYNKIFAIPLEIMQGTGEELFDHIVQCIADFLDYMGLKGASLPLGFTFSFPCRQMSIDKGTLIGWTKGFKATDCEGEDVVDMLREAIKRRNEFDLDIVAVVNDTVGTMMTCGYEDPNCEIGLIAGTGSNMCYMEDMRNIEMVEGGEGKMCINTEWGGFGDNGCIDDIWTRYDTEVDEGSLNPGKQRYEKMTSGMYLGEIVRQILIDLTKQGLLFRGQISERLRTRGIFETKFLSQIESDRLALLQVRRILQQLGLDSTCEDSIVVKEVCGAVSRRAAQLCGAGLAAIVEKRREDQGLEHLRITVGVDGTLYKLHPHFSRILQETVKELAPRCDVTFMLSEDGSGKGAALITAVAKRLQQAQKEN

[7] = inhibitors of firefly luciferase expression or activity, dose response, H4 neuroglioma cells, luminescence (AID 1990); type: functional, cell-based

CCCCCCCCCCOC(=O)Cn1c(COc2cccc(OC)c2)[n+](C)c2ccccc21
IC50 [1]: > 20000 nM (inactive) | EC50 [2]: > 60000 nM (not active) | EC50 [3]: 765 nM (active) | AC50 [4]: 2110 nM (active)

CCc1ccc(S(=O)(=O)/N=C2\C=C(Nc3cccc(C(=O)O)c3)C(=O)c3ccccc32)cc1
EC50 [5]: 1260 nM (active) | IC50 [6]: 4780 nM (active)

COc1cc(OC)c(NC2=CC(=O)C(=O)c3ccccc32)cc1Cl
EC50 [7]: 412 nM (active)
